Measured values: patent publication US20110177179A1, “PREPARATION OF BOTANICAL EXTRACTS CONTAINING ABSORBABLE COMPONENTS USING PHARMACEUTICAL PLATFORM TECHNOLOGY” (SINOVEDA CANADA, INC., priority 2010, published 2011)
Where two headings read alike, the source gives them in different places. Blank lines part the entries; values can stand above or below the molecule they belong to.

Assays:
colonic bacteria = test: Metabolism by colonic (intestinal) bacteria, anaerobic incubation with fecal sample; format: in vitro ADME, rat; settings: for metabolism by colonic bacteria (change in level): Red clover methanolic extract, anaerobic, 37° C., up to 24 hours
Method: The effect of colonic bacteria on the stability of a methanolic extract of Red clover was evaluated. The procedures reported by Schneider et al. (Schneider, Simmering et al. 2000) was used to prepare a fecal sample collected from a rat. The extract was incubated anaerobically at 37° C. for a period of 24 hours.

MDCK cells = test: Permeability of extract components through MDCK cell monolayer; format: in vitro ADME; settings: for permeability versus molecular weight trend: Rhodiola 80% methanol extract
Method: Both CaCo-2 and MDCK cells were purchased form American Type Culture Collection (ATCC) and cultured with Dulbecco Modified Eagle's Media (DMEM) supplemented with 10% fetal bovine serum, 1% non-essential amino acids, and 10 mM HEPES. All tissue culture media and supplements were purchased from Sigma-Aldrich. Following Yee's method (Yee 1997), CaCo-2 cells were seeded into transwell culture dishes and cultured for 21 days. Lin et al's. (2003) method was used to seed and culture MDCK cells; the culturing period was three days.
(§1) Two natural products: Rhodiola rosea and Red yeast rice were individually extracted using the three solvents described in Example 1. Each extract was dissolved in Hanks' balanced salt buffer supplemented with 20 mM HEPES at 1 mg/ml. Permeability studies were carried out using MDCK cells and samples were taken from the apical side at 0 minute and 60 minutes and from the basal side at 60 minutes after incubation. Samples were diluted with a 1:1 mixture of methanol and acetonitrile prior to analysis using a LC/MS system. Permeability coefficient number was calculated as follows: Peff (cm/sec)=(Vr/(A*Cs))*(Cf/t), where Vr is the receiver side volume (basal; ml), A is the area of monolayer (cm^2), Cs is the starting concentration at the donor side (μM), Cf is the concentration at the receiver side at time t (μM), and t is the incubation time (seconds).
as §1, with “The extracts of” for “Two natural products: Rhodiola rosea and”, “clover” for “yeast rice”, “individually” for “individually extracted using the three solvents described in Example 1. Each extract was”, “(cm/sec)=(Vr/(A*C,))*(Cf/t),” for “(cm/sec)=(Vr/(A*Cs))*(Cf/t),”

[1] = Hollman, van Trijp et al. 1997; cited from earlier work
[2] = major component of Chuanxiong; Yan, Ko et al. 2008; cited from earlier work
[3] = after 6 hours of incubation with colonic bacteria
[4] = Rhodiola rosea extracts, 1 mg/ml, 60 minutes, p<0.05

metabolism by colonic bacteria (change in level) (colonic bacteria): increase
species left in the incubate (colonic bacteria; [3]): major species left
Molecule: COc1ccc(-c2coc3cc(O)ccc3c2=O)cc1 [formononetin]

Molecule: O[C@@H]1[C@@H](O)[C@H](OC/C=C/c2ccccc2)O[C@H](CO[C@@H]2OC[C@H](O)[C@H](O)[C@H]2O)[C@H]1O [rosavin]
permeability versus molecular weight trend (MDCK cells; 1 mg/ml, 60 minutes): deviated significantly from the trend
permeability, 80% methanol extract as opposed to water extract (MDCK cells; [4]): significantly different

species left in the incubate (colonic bacteria): major species left
Molecule: COc1ccc(-c2coc3cc(O)cc(O)c3c2=O)cc1 [biochanin A]

metabolism by colonic bacteria (change in level) (colonic bacteria): appeared shortly after incubation
species left in the incubate (colonic bacteria; [3]): major species left
Molecule: Oc1ccc([C@H]2COc3cc(O)ccc3C2)cc1 [Equol]

Molecule: OC[C@@H]1O[C@@H](OC[C@H]2O[C@@H](OC/C=C/c3ccccc3)[C@H](O)[C@@H](O)[C@@H]2O)[C@H](O)[C@H]1O [rosarin]
permeability versus molecular weight trend (MDCK cells; 1 mg/ml, 60 minutes): deviated significantly from the trend
permeability, 80% methanol extract as opposed to water extract (MDCK cells; [4]): significantly different

Molecule: C[C@@H]1O[C@@H](OC[C@H]2O[C@@H](Oc3c(-c4ccc(O)c(O)c4)oc4cc(O)cc(O)c4c3=O)[C@H](O)[C@@H](O)[C@@H]2O)[C@H](O)[C@H](O)[C@H]1O [Rutin]
detection in the blood stream [1]: not detected

permeability, 80% methanol extract as opposed to water extract (MDCK cells; MDCK): significantly different
Molecule: hydroxyrosavin

Molecule: CC[C@H](C)C(=O)O[C@H]1C[C@@H](C)C=C2C=C[C@H](C)[C@H](CC[C@@H]3C[C@@H](O)CC(=O)O3)[C@H]21 [monacolin K]
permeability, comparison of water, 80% methanol and hexane extracts (MDCK cells; Red yeast rice extracts, 1 mg/ml, 60 minutes): highest in the hexane extract

Molecule: CCC/C=C1\OC(=O)C2=C1CCC=C2 [z-ligustilide]
bioavailability [2]: less than 3%
